# According to ChEMBL document CHEMBL1144862, “A mechanism for substrate-Induced formation of 6-hydroxyflavin mononucleotide catalyzed by C30A trimethylamine dehydrogenase” (Bioorg Med Chem Lett, 2003):
# Assay: Kcat value was determined
# Assay type: ADME
smiles,measurement,value
Cc1cc2c(nc3c(=O)[nH]c(=O)nc-3n2C[C@@H](O)[C@@H](O)[C@@H](O)COP(=O)(O)O)c(O)c1C,k cat,< 2
